Assay results reported in patent publication US5451583A, “Substituted benzimidazoles and quinazolines as antihypertensives” (American Home Products Corporation, priority 1994, dated 1995).
Structures can show the parent of a compound that is named as a salt.

target: angiotensin II receptor; assay: rat adrenal receptor binding assay, displacement of radiolabeled (125I) angiotensin II; conditions: rat adrenal cortex membranes; 1 nM 125I-A II; 35 min at 25° C.; pH 7.4; read-out: IC50, Inhibition of 125I Angiotensin II Binding
Description: The high affinity of the compounds for the angiotensin II receptor was established using a rat adrenal receptor binding assay, measuring the displacement of radiolabeled angiotensin II from the receptor, described as follows: Anesthetize male Sprague-Dawley rats (300-400 g body weight) with CO2 and sacrifice by cervical dislocation. Dissect adrenal glands and keep in ice-cold sucrose buffer (0.2M sucrose, 1 mM EDTA, 10 mM Trizma base, pH=7.2). Remove medulla by squashing. Mince the cortex, rinse and homogenize in a chilled ground glass tissue grinder with 15 mL sucrose buffer. Centrifuge at 3000×g for 10 min. (Sorvall RCSC centrifuge, SS34 rotor 6200 rpm). Decant supernatant through gauze. Centrifuge combined supernatant at 12000×g for 13 min. (Beckman ultracentrifuge, 80Ti rotor, 13000 rpm). Centrifuge the supernatant from the previous step at 102000×g for 60 min. (Beckman ultracentrifuge, 80Ti rotor, 38200 rpm). All steps are carried out at 4° C. Resuspend the pellet in 0.5 mL assay buffer (50 mM Tris HCI, 5 mM MgCl2, 0.2% BSA (protease-free), pH=7.4, 25° C.). Store on ice. Determine membrane protein by Lowry or Bradford assay with BSA as standard. The binding assay is performed in triplicate, in 12×75 mm plastic test tubes or in a 96-well plate (final volume of 0.25 mL). Add 140 μL assay buffer. Add 10 μL cold A II (to give final concentrations of 10^-10 -10^-7 M for standard curve and 10^-4 M for nonspecific binding), compounds (e.g., for final concentrations of 25 and 100 μM or 1 μM, 10 nM and 100 nM) in 50% DMSO, or 50% DMSO as a control. Add 50 μL membrane suspension (e.g., 10 μg protein). Preincubate for 30 min at 25° C. Add 50 μL ^125 I-A II which has been prepared as shown below (final concentration=1 nM). Incubate for 35 min at 25° C. Stop the incubation by adding 1 mL ice-cold buffer (assay buffer without BSA). Filter with GF/C filters on cell harvester (filters are presoaked in the assay buffer containing 1% polyethyleneimine). Rinse assay tubes 3× with 5 mL cold buffer (assay buffer without BSA). Cut and deposit the filter discs into test tubes and count on gamma counter for 1 min. Adjust the specific activity of ^125 I-A II purchased from New England Nuclear to 500 μCi/nmole by adding cold A II in water. Calculate the quantities of hot A II and the cold A II needed and make the dilution. Aliquot, seal tight, and store frozen until needed. Calculate the concentration of the total A II (hot+cold) after dilution. On the day of assay, thaw the frozen aliquot and adjust the volume to give a concentration of 5 pmole/mL (or 0.25 pmole/50 μL) with assay buffer (+protease-free BSA). For final concentration of 1 nM ^125 I-A II in the assay, add 50 μL (or 0.25 pmole) per test tube to a final volume of 250 μL. The results of these binding assays are reported as the inhibitory concentration of the test compound necessary to achieve fifty percent displacement of radiolabeled angiotensin II from its receptor (IC50), or the percent displacement of binding of A II at its receptor at 10^-8 M concentration of test compound (% I).

Row | Compound | IC50 [µM]
1 | CCCc1nc2ccccc2n1Cc1ccc(C2CCCC2C(=O)O)cc1 (centres unmarked) [Example 4, 2-[4-[(2-Propyl-1H-benzimidazol-1-yl)methyl]phenyl]cyclopentane-1-carboxylic Acid] | 25
2 | CCCc1nc2ccccc2n1CCN1CCN(c2ccccc2-c2nnn[nH]2)CC1 [Example 5, 2-Propyl-1-[2-[4-[2-(1H-tetrazol-5-yl)phenyl]-1-piperazinyl]ethyl]-1H-benzimidazole Potassium Salt] | 43
3 | CCCc1nc2ccccc2n1CCC1CCN(c2ccccc2-c2nnn[nH]2)CC1 [Example 6, 2-Propyl-1-[2-[1-[2-(1H-tetrazol-5-yl)phenyl]-4-piperidinyl]ethyl]-1H-benzimidazole] | 30
4 | CCCc1nc2c(C)cccc2n1Cc1ccc(-c2ccccc2-c2nnn[nH]2)nc1 [Example 8, 4-Methyl-2-propyl-1-[[2-[2-(1H-tetrazol-5-yl)phenyl]-5-pyridinyl]methyl]-1H-benzimidazole] | 15
5 | FC(F)(F)c1nc2c(c(NCc3ccc(-c4ccccc4-c4nn[nH]n4)nc3)n1)CCCC2 [Example 9] | 4.5
6 | CCCc1nc2ccccc2n1Cc1ccc(-c2ncccc2C(=O)O)cc1 [Example 10, 2-[4-[(2-Propyl-1H-benzimidazol-1-yl)methyl]phenyl]-3-pyridinecarboxylic Acid] | 200

Now from value to molecule:

Row | IC50 [µM] | Compound
7 | 200 | CCCc1nc2ccccc2n1CC1=C(c2ccccc2-c2nnn[nH]2)CCC1 [Example 1, 2-Propyl-1-[[2-[2-(1H-tetrazol-5-yl)phenyl]-1-cyclopentenyl]methyl]-1H-benzimidazole]
8 | 73 | CCCc1nc2ccccc2n1CC1=C(c2cccc(-c3nnn[nH]3)c2)CCC1 [Example 2, 2-Propyl-1-[[2-[3-(1H-tetrazol-5-yl)phenyl]-1-cyclopentenyl]methyl]1H-benzimidazole]
9 | 20 | CCCc1nc2ccccc2n1Cc1ccc(C2=C(C(=O)O)CCC2)cc1 [Example 3, 2-[4-[(2-Propyl-1H-benzimidazol-1-yl)methyl]phenyl]-1-cyclopentene-1-carboxylic Acid]
10 | 24 | CCCc1nc2ccccc2n1Cc1ccc(-c2ccccc2-c2nnn[nH]2)nc1 [Example 7, 2-Propyl-1-[[2-[2-(1H-tetrazol-5-yl)phenyl]-5-pyridinyl]methyl]-1H-benzimidazole]

test system: A II-infused rat; assay: A II-infused rat model (ganglion-blocked), antihypertensive action; format: in vivo; conditions: 3 mg/kg id (intraduodenal), four hours post-administration
Description: In accordance with their ability to antagonize angiotensin II, the compounds of this invention show antihypertensive action in the following A II-infused rat model. Rats are anesthetized with Dial-Urethane (0.60 mL/kg, ip) and the trachea cannulated with PE 240. Either one femoral artery and both femoral veins or the carotid artery and the corresponding jugular vein are cannulated with PE 50. If the jugular vein is cannulated, two cannulas are placed in the one vein. The initial portion of the duodenum (just distal to the stomach) is cannulated with PE 50 via a small midline incision. Arterial pressure and heart rate are measured from the arterial cannula. Ten to 15 min are allowed following surgery for stabilization of arterial pressure. Ganglion blockade is then produced by intravenous administration of mecamylamine at 3 mg/kg (1 mL/kg of a 3 mg/mL solution). Ganglion blockade causes a fall in arterial pressure of about 50 mmHg. Mecamylamine is given every 90 min throughout the remainder of the experiment. An A II infusion is then begun into the other venous cannula at 0.25 μg/kg/min (at […]). The A II infusion returns arterial pressure to or slightly above the control level. Once arterial pressure has stabilized with the A II infusion, baseline values for mean arterial pressure (MAP) and heart rate are taken. […]

Row | Compound | lowering of A II dependent blood pressure, average [%]
11 | FC(F)(F)c1nc2c(c(NCc3ccc(-c4ccccc4-c4nn[nH]n4)nc3)n1)CCCC2 [Example 9] | 70
